Values quoted from earlier work as cited in patent publication US20240401031A1, “Platform Using iPSC-Derived Cardiomyocytes Carrying Gene Variants as Models of Cardiac Disease and Drug-Response” (SRI INTERNATIONAL, priority 2021, published 2024).

Conditions: source CredibleMeds

Q: With `N[C@H](C(=O)O)[C@H](O)c1ccc(O)c(O)c1` [Droxidopa] as the compound, how does the “Risk (Torsade de Pointes)” value read?
A: The value was “(SR)”.

Q: For `CN(C)C(=O)c1cc2cnc(Nc3ccc(N4CCNCC4)cn3)nc2n1C1CCCC1` [Ribociclib], which “Risk (Torsade de Pointes)” value is on record?
A: The value was “(PR)”.

Q: Which “Risk (Torsade de Pointes)” value does the source give for `COc1ccc(CN2C3CC2CN(c2ccc(-c4cc(OCC(C)(C)O)cn5ncc(C#N)c45)cn2)C3)cn1` [Selpercatinib] here?
A: The value was “(PR)”.

Q: Which “Risk (Torsade de Pointes)” value does the source give for `O=[N+]([O-])c1cn2c(n1)OC[C@@H](OCc1ccc(OC(F)(F)F)cc1)C2` [Pretomanid] here?
A: Its value is “(PR)”.

Q: Which “Risk (Torsade de Pointes)” value does the source give for `CNCc1ccc(-c2[nH]c3cc(F)cc4c3c2CCNC4=O)cc1` [Rucaparib] here?
A: The value was “(PR)”.

Q: Which “Risk (Torsade de Pointes)” value does the source give for `CCCCc1oc2ccc(NS(C)(=O)=O)cc2c1C(=O)c1ccc(OCCCN(CCCC)CCCC)cc1` [Dronedarone] here?
A: The value was “(KR)”.

Q: For `CN(C)CCCN1c2ccccc2CCc2ccccc21` [Imipramine], which “Risk (Torsade de Pointes)” value is on record?
A: The value was “(PR)”.

Q: For `COC(=O)N[C@H](C(=O)N[C@@H](Cc1ccccc1)[C@@H](O)CN(Cc1ccc(-c2ccccn2)cc1)NC(=O)[C@@H](NC(=O)OC)C(C)(C)C)C(C)(C)C` [Atazanavir], which “Risk (Torsade de Pointes)” value is on record?
A: Its value is “(CR)”.

Q: Which “Risk (Torsade de Pointes)” value does the source give for `CC1Cc2ccccc2N1NC(=O)c1ccc(Cl)c(S(N)(=O)=O)c1` (centres unmarked) [Indapamide] here?
A: The value was “(CR)”.

Q: Which “Risk (Torsade de Pointes)” value does the source give for `Nc1nc(CC(=O)Nc2ccc(CCNC[C@H](O)c3ccccc3)cc2)cs1` [Mirabegron] here?
A: The value was “(PR)”.

Q: For `CN(C)CCCN1c2ccccc2Sc2ccc(Cl)cc21` [Chlorpromazine], which “Risk (Torsade de Pointes)” value is on record?
A: The value was “(KR)”.

Q: Which “Risk (Torsade de Pointes)” value does the source give for `O=C(CCCN1CC=C(n2c(=O)[nH]c3ccccc32)CC1)c1ccc(F)cc1` [Droperidol] here?
A: Its value is “(KR)”.

Q: Which “Risk (Torsade de Pointes)” value does the source give for `O=C1c2cccc3c2[C@H](CCC3)CN1[C@@H]1CN2CCC1CC2` [Palonosetron] here?
A: Its value is “(PR)”.

Q: With `COc1ccccc1OCC(O)CN1CCN(CC(=O)Nc2c(C)cccc2C)CC1` (centres unmarked) [Ranolazine] as the compound, how does the “Risk (Torsade de Pointes)” value read?
A: Its value is “(CR)”.

Q: For `N=C(N)c1ccc(OCCCCCOc2ccc(C(=N)N)cc2)cc1` [Pentamidine], which “Risk (Torsade de Pointes)” value is on record?
A: Its value is “(KR)”.

Q: With `O=C1NCCN1CCN1CCC(c2cn(-c3ccc(F)cc3)c3ccc(Cl)cc23)CC1` [Sertindole] as the compound, how does the “Risk (Torsade de Pointes)” value read?
A: Its value is “(KR)”.

Q: Which “Risk (Torsade de Pointes)” value does the source give for `C[C@]1(COc2ccc(N3CCC(Oc4ccc(OC(F)(F)F)cc4)CC3)cc2)Cn2cc([N+](=O)[O-])nc2O1` [Delamanid] here?
A: Its value is “(PR)”.

Q: Which “Risk (Torsade de Pointes)” value does the source give for `CN1CCN2c3ccccc3Cc3ccccc3C2C1` (centres unmarked) [Mianserin] here?
A: The value was “(PR)”.

Q: Which “Risk (Torsade de Pointes)” value does the source give for `CCNC(C)Cc1cccc(C(F)(F)F)c1` (centres unmarked) [Fenfluramine] here?
A: The value was “(SR)”.

Q: With `CCC(=O)C(C[C@@H](C)N(C)C)(c1ccccc1)c1ccccc1` [Levomethadone] as the compound, how does the “Risk (Torsade de Pointes)” value read?
A: Its value is “(PR)”.

Q: Which “Risk (Torsade de Pointes)” value does the source give for `Cc1cc(/C=C/C#N)cc(C)c1Nc1ccnc(Nc2ccc(C#N)cc2)n1` [Rilpivirine] here?
A: Its value is “(PR)”.

Q: For `NC(=O)C1(N2CCCCC2)CCN(CCCC(=O)c2ccc(F)cc2)CC1` [Pipamperone], which “Risk (Torsade de Pointes)” value is on record?
A: The value was “(PR)”.

Q: For `[Cs]` [Cesium], which “Risk (Torsade de Pointes)” value is on record?
A: Its value is “(KR)”.

Q: With `C=C/C=C/C[C@@H](C)[C@@H](O)[C@H]1C(=O)N[C@@H](CC)C(=O)N(C)CC(=O)N(C)[C@@H](CC(C)C)C(=O)N[C@@H](C(C)C)C(=O)N(C)[C@@H](CC(C)C)C(=O)N[C@@H](C)C(=O)N[C@H](C)C(=O)N(C)[C@@H](CC(C)C)C(=O)N(C)[C@@H](CC(C)C)C(=O)N(C)[C@@H](C(C)C)C(=O)N1C` [Voclosporin] as the compound, how does the “Risk (Torsade de Pointes)” value read?
A: The value was “(PR)”.

Q: Which “Risk (Torsade de Pointes)” value does the source give for `CCN(c1cc(-c2ccc(CN3CCOCC3)cc2)cc(C(=O)NCc2c(C)cc(C)[nH]c2=O)c1C)C1CCOCC1` [Tazemetostat] here?
A: The value was “(PR)”.

Q: Which “Risk (Torsade de Pointes)” value does the source give for `O=c1n(CCCN2CCN(c3cccc(Cl)c3)CC2)nc2ccccn12` [Trazodone] here?
A: Its value is “(CR)”.

Q: For `CCCCCOC(=O)Nc1nc(=O)n([C@@H]2O[C@H](C)[C@@H](O)[C@H]2O)cc1F` [Capecitabine], which “Risk (Torsade de Pointes)” value is on record?
A: The value was “(PR)”.

Q: Which “Risk (Torsade de Pointes)” value does the source give for `C=C[C@H]1C[N@@]2CC[C@H]1C[C@@H]2[C@@H](O)c1ccnc2ccc(OC)cc12` [Quinidine] here?
A: The value was “(KR)”.

Q: For `CNCCC(Oc1ccc(C(F)(F)F)cc1)c1ccccc1` (centres unmarked) [Fluoxetine], which “Risk (Torsade de Pointes)” value is on record?
A: The value was “(CR)”.

Q: With `COc1cc2nc(N(C)CCCNC(=O)C3CCCO3)nc(N)c2cc1OC` (centres unmarked) [Alfuzosin] as the compound, how does the “Risk (Torsade de Pointes)” value read?
A: The value was “(PR)”.

Q: With `CCC[C@H](NC(=O)[C@@H]1[C@H]2CCC[C@H]2CN1C(=O)[C@@H](NC(=O)[C@@H](NC(=O)c1cnccn1)C1CCCCC1)C(C)(C)C)C(=O)C(=O)NC1CC1` [Telaprevir] as the compound, how does the “Risk (Torsade de Pointes)” value read?
A: The value was “(CR)”.

Q: With `N#Cc1ccnc(N2C(=O)CC[C@H]2C(=O)N(c2cncc(F)c2)[C@H](C(=O)NC2CC(F)(F)C2)c2ccccc2Cl)c1` [Ivosidenib] as the compound, how does the “Risk (Torsade de Pointes)” value read?
A: Its value is “(PR)”.

Q: With `CCN(CCO)CCCC(C)Nc1ccnc2cc(Cl)ccc12` (centres unmarked) [Hydroxychloroquine] as the compound, how does the “Risk (Torsade de Pointes)” value read?
A: The value was “(KR)”.

Q: With `C=C1C[C@@H]2CC[C@@]34C[C@H]5O[C@H]6[C@@H](O3)[C@H]3O[C@H](CC[C@@H]3O[C@H]6[C@H]5O4)CC(=O)C[C@@H]3[C@@H](OC)[C@@H](C[C@H](O)CN)O[C@H]3C[C@H]3O[C@@H](CC[C@@H]1O2)C[C@@H](C)C3=C` [Eribulin] as the compound, how does the “Risk (Torsade de Pointes)” value read?
A: Its value is “(PR)”.

Q: Which “Risk (Torsade de Pointes)” value does the source give for `C=C[C@]1(C)C[C@@H](OC(=O)CS[C@@H]2CC[C@@H](N)C[C@H]2O)[C@]2(C)[C@H](C)CC[C@]3(CCC(=O)[C@H]32)[C@@H](C)[C@@H]1O` [Lefamulin] here?
A: Its value is “(PR)”.

Q: Which “Risk (Torsade de Pointes)” value does the source give for `COc1cc2c(cc1OC)C1CC(=O)C(CC(C)C)CN1CC2` (centres unmarked) [Tetrabenazine] here?
A: The value was “(PR)”.

Q: For `CNCCC=C1c2ccccc2CCc2ccccc21` [Nortriptyline], which “Risk (Torsade de Pointes)” value is on record?
A: Its value is “(PR)”.

Q: For `OCCOCCN1CCN(C(c2ccccc2)c2ccc(Cl)cc2)CC1` (centres unmarked) [Hydroxyzine], which “Risk (Torsade de Pointes)” value is on record?
A: The value was “(CR)”.

Q: With `COc1cc2c(cc1OC)CC(=O)N(CCCN(C)C[C@H]1Cc3cc(OC)c(OC)cc31)CC2` [Ivabradine] as the compound, how does the “Risk (Torsade de Pointes)” value read?
A: The value was “(CR)”.

Q: Which “Risk (Torsade de Pointes)” value does the source give for `CN1[C@@H]2CC[C@H]1C[C@@H](OC(=O)c1c[nH]c3ccccc13)C2` [Tropisetron] here?
A: The value was “(PR)”.

Q: With `NS(=O)(=O)c1cc2c(cc1C(F)(F)F)NC(Cc1ccccc1)NS2(=O)=O` (centres unmarked) [Bendroflumethiazide] as the compound, how does the “Risk (Torsade de Pointes)” value read?
A: The value was “(CR)”.

Q: With `C[C@@H]1CN(c2c(F)c(N)c3c(=O)c(C(=O)O)cn(C4CC4)c3c2F)C[C@H](C)N1` [Sparfloxacin] as the compound, how does the “Risk (Torsade de Pointes)” value read?
A: Its value is “(KR)”.

Q: Which “Risk (Torsade de Pointes)” value does the source give for `CCN(CC)CCCC(C)Nc1ccnc2cc(Cl)ccc12` (centres unmarked) [Chloroquine] here?
A: Its value is “(KR)”.

Q: Which “Risk (Torsade de Pointes)” value does the source give for `CCC/N=C1\S/C(=C\c2ccc(OC[C@H](O)CO)c(Cl)c2)C(=O)N1c1ccccc1C` [Ponesimod] here?
A: Its value is “(PR)”.

Q: For `COc1c(N2CCNC(C)C2)c(F)cc2c(=O)c(C(=O)O)cn(C3CC3)c12` (centres unmarked) [Gatifloxacin], which “Risk (Torsade de Pointes)” value is on record?
A: The value was “(KR)”.

Q: With `CC[C@H]1OC(=O)[C@H](C)[C@@H](O[C@H]2C[C@@](C)(OC)[C@@H](O)[C@H](C)O2)[C@H](C)[C@@H](O[C@@H]2O[C@H](C)C[C@H](N(C)C)[C@H]2O)[C@](C)(O)C[C@@H](C)CN(C)[C@H](C)[C@@H](O)[C@]1(C)O` [Azithromycin] as the compound, how does the “Risk (Torsade de Pointes)” value read?
A: Its value is “(KR)”.

Q: Which “Risk (Torsade de Pointes)” value does the source give for `O=C1CCc2cc(OCCCCc3nnnn3C3CCCCC3)ccc2N1` [Cilostazol] here?
A: The value was “(KR)”.

Q: With `FC(F)(F)C(F)(F)C(F)(F)F` [Perflutren] as the compound, how does the “Risk (Torsade de Pointes)” value read?
A: Its value is “(PR)”.

Q: For `COc1cc2nccc(Oc3ccc(NC(=O)C4(C(=O)Nc5ccc(F)cc5)CC4)cc3)c2cc1OC` [Cabozantinib], which “Risk (Torsade de Pointes)” value is on record?
A: Its value is “(PR)”.

Q: With `CNC(=O)c1cc(Oc2ccc(NC(=O)Nc3ccc(Cl)c(C(F)(F)F)c3)cc2)ccn1` [Sorafenib] as the compound, how does the “Risk (Torsade de Pointes)” value read?
A: The value was “(PR)”.

Q: Which “Risk (Torsade de Pointes)” value does the source give for `CC(C)/N=c1\cc2n(-c3ccc(Cl)cc3)c3ccccc3nc-2cc1Nc1ccc(Cl)cc1` [Clofazimine] here?
A: The value was “(PR)”.

Q: With `O=c1[nH]cc(F)c(=O)[nH]1` [Fluorouracil] as the compound, how does the “Risk (Torsade de Pointes)” value read?
A: Its value is “(PR)”.

Q: For `CC(C)COCC(CN(Cc1ccccc1)c1ccccc1)N1CCCC1` (centres unmarked) [Bepridil], which “Risk (Torsade de Pointes)” value is on record?
A: The value was “(KR)”.

Q: With `COc1cc(NC(C)CCCN)c2ncccc2c1` (centres unmarked) [Primaquine] as the compound, how does the “Risk (Torsade de Pointes)” value read?
A: Its value is “(PR)”.

Q: Which “Risk (Torsade de Pointes)” value does the source give for `O=C(O)c1cn(C2CC2)c2cc(N3CCNCC3)c(F)cc2c1=O` [Ciprofloxacin] here?
A: Its value is “(KR)”.

Q: For `CN1CC2c3ccccc3Oc3ccc(Cl)cc3C2C1` (centres unmarked) [Asenapine], which “Risk (Torsade de Pointes)” value is on record?
A: The value was “(PR)”.

Q: With `COC(=O)N[C@@H](C)CNc1nccc(-c2cn(C(C)C)nc2-c2cc(Cl)cc(NS(C)(=O)=O)c2F)n1` [Encorafenib] as the compound, how does the “Risk (Torsade de Pointes)” value read?
A: Its value is “(PR)”.

Q: With `CC[C@H]1OC(=O)[C@H](C)C(=O)[C@H](C)[C@@H](O[C@@H]2O[C@H](C)C[C@H](N(C)C)[C@H]2O)[C@](C)(OC)C[C@@H](C)C(=O)[C@H](C)[C@H]2N(CCCCn3cnc(-c4cccnc4)c3)C(=O)O[C@]12C` [Telithromycin] as the compound, how does the “Risk (Torsade de Pointes)” value read?
A: The value was “(PR)”.

Q: For `COc1ccc(Cc2nccc3cc(OC)c(OC)cc23)cc1OC` [Papaverine], which “Risk (Torsade de Pointes)” value is on record?
A: Its value is “(KR)”.

Q: For `CC(=O)NC[C@H]1CN(c2ccc(N3CCOCC3)c(F)c2)C(=O)O1` [Linezolid], which “Risk (Torsade de Pointes)” value is on record?
A: Its value is “(PR)”.

Q: For `COc1cc2c(Nc3ccc(Br)cc3F)ncnc2cc1OCC1CCN(C)CC1` [Vandetanib], which “Risk (Torsade de Pointes)” value is on record?
A: Its value is “(KR)”.

Q: With `CN(C)CCCN1c2ccccc2Sc2cccnc21` [Prothipendyl] as the compound, how does the “Risk (Torsade de Pointes)” value read?
A: Its value is “(PR)”.
